target: T1, RORc ligand binding domain (Homo sapiens, UniProt P51449); experiment: In Vitro RORc Ligand Binding Assay; details: RORc IC50, radioligand 25-[3H]hydroxycholesterol 6 nM; 0.6 ug/mL RORc receptor; 3 h at 25° C.
T1 sequence (P51449 269-508 limits assumed): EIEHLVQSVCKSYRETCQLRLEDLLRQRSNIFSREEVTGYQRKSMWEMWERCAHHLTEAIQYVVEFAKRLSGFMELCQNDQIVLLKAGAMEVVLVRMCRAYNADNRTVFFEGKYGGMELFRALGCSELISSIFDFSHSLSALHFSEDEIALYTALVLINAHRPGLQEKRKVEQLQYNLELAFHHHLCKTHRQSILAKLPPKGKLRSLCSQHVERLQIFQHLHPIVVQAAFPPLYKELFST

Row | IC50 [nM] | Compound
1 | 5.3 | CCC(O)(CC)c1coc(-c2cncc([C@@]34CC[C@@H](c5cc(-c6c(F)cccc6F)nnc53)C4(C)C)n2)n1 [Example 377, 3-(2-(6-((5R,8S)-3-(2,6-difluorophenyl)-9,9-dimethyl-5,6,7,8-tetrahydro-5,8-methanocinnolin-8-yl)pyrazin-2-yl)oxazol-4-yl)pentan-3-ol]
2 | 6.8 | C[C@H](O)c1coc(-c2cncc([C@@]34CC[C@@H](c5cc(-c6c(F)cccc6F)nnc53)C4(C)C)n2)n1 [Example 378, (S)-1-(2-(6-((5R,8S)-3-(2,6-difluorophenyl)-9,9-dimethyl-5,6,7,8-tetrahydro-5,8-methanocinnolin-8-yl)pyrazin-2-yl)oxazol-4-yl)ethanol]
3 | 7.4 | C[C@@H](O)c1coc(-c2cncc([C@@]34CC[C@@H](c5cc(-c6c(F)cccc6F)nnc53)C4(C)C)n2)n1 [Example 379, (R)-1-(2-(6-((5R,8S)-3-(2,6-difluorophenyl)-9,9-dimethyl-5,6,7,8-tetrahydro-5,8-methanocinnolin-8-yl)pyrazin-2-yl)oxazol-4-yl)ethanol]
4 | 6.1 | CC1(C)[C@H]2CC[C@]1(c1cncc(-c3nc(CC#N)co3)n1)c1nnc(-c3c(F)cccc3F)cc12 [Example 380, 2-(2-(6-((5R,8S)-3-(2,6-difluorophenyl)-9,9-dimethyl-5,6,7,8-tetrahydro-5,8-methanocinnolin-8-yl)pyrazin-2-yl)oxazol-4-yl)acetonitrile]
5 | 6 | CC1(C)[C@@H]2CC[C@@]1(c1cncc(-n3ccc(CO)n3)n1)c1nnc(-c3c(F)cccc3F)cc12 [Example 381, (1-(6-((5S,8R)-3-(2,6-difluorophenyl)-9,9-dimethyl-5,6,7,8-tetrahydro-5,8-methanocinnolin-8-yl)pyrazin-2-yl)-1H-pyrazol-3-yl)methanol]
6 | 7.3 | CC[C@@H](O)c1coc(-c2cncc([C@@]34CC[C@@H](c5cc(-c6c(F)cccc6F)nnc53)C4(C)C)n2)n1 [Example 382, (R)-1-(2-(6-((5R,8S)-3-(2,6-difluorophenyl)-9,9-dimethyl-5,6,7,8-tetrahydro-5,8-methanocinnolin-8-yl)pyrazin-2-yl)oxazol-4-yl)propan-1-ol]
7 | 8.2 | CC[C@H](O)c1coc(-c2cncc([C@@]34CC[C@@H](c5cc(-c6c(F)cccc6F)nnc53)C4(C)C)n2)n1 [Example 383, (S)-1-(2-(6-((5R,8S)-3-(2,6-difluorophenyl)-9,9-dimethyl-5,6,7,8-tetrahydro-5,8-methanocinnolin-8-yl)pyrazin-2-yl)oxazol-4-yl)propan-1-ol]
8 | 6.9 | CC1(C)[C@H]2CC[C@]1(c1cncc(-c3nc(CC(N)=O)co3)n1)c1nnc(-c3c(F)cccc3F)cc12 [Example 384, 2-(2-(6-((5R,8S)-3-(2,6-difluorophenyl)-9,9-dimethyl-5,6,7,8-tetrahydro-5,8-methanocinnolin-8-yl)pyrazin-2-yl)oxazol-4-yl)acetamide]
9 | 19.7 | CC1(C)[C@H]2CC[C@]1(c1ccnc(-c3cccnc3O)n1)c1nnc(-c3c(F)cccc3F)cc12 [Example 385]
10 | 9.8 | CC1(C)[C@H]2CC[C@]1(c1ccnc(-c3cc[nH]c(=O)c3)n1)c1nnc(-c3c(F)cccc3F)cc12 [Example 386]
11 | 8 | CC(C)(O)c1coc(-c2cncc([C@]34CC[C@H](c5cc(-c6c(F)cccc6F)nnc53)C4(C)C)n2)n1 [Example 387, 2-(2-(6-((5S,8R)-3-(2,6-difluorophenyl)-9,9-dimethyl-5,6,7,8-tetrahydro-5,8-methanocinnolin-8-yl)pyrazin-2-yl)oxazol-4-yl)propan-2-ol]
12 | 7.3 | CC(C)(O)c1ncc(-c2nccc([C@@]34CC[C@@H](c5cc(-c6c(F)cccc6F)nnc53)C4(C)C)n2)cn1 [Example 388]
13 | 91.2 | Cc1ncn(-c2cc([C@@]34CC[C@@H](c5cc(-c6c(F)cccc6F)nnc53)C4(C)C)cnn2)n1 [Example 389, (5R,8S)-3-(2,6-difluorophenyl)-9,9-dimethyl-8-(6-(3-methyl-1H-1,2,4-triazol-1-yl)pyridazin-4-yl)-5,6,7,8-tetrahydro-5,8-methanocinnoline]
14 | 317 | Cc1ncnn1-c1cc([C@@]23CC[C@@H](c4cc(-c5c(F)cccc5F)nnc42)C3(C)C)cnn1 [Example 390, (5R,8S)-3-(2,6-difluorophenyl)-9,9-dimethyl-8-(6-(5-methyl-1H-1,2,4-triazol-1-yl)pyridazin-4-yl)-5,6,7,8-tetrahydro-5,8-methanocinnoline]
15 | 44.6 | Cc1cc([C@@]23CC[C@@H](c4cc(-c5c(F)cccc5F)nnc42)C3(C)C)nc(N)n1 [Example 391]
16 | 5.5 | CC(C)(O)c1ccc(-c2cncc([C@@]34CC[C@@H](c5cc(-c6c(F)cccc6F)nnc53)C4(C)C)n2)cn1 [Example 392, 2-(5-(6-((5R,8S)-3-(2,6-difluorophenyl)-9,9-dimethyl-5,6,7,8-tetrahydro-5,8-methanocinnolin-8-yl)pyrazin-2-yl)pyridin-2-yl)propan-2-ol]

Row | IC50 [nM] | Compound
17 | 5.6 | CC(C)(O)c1cc(-c2cncc([C@@]34CC[C@@H](c5cc(-c6c(F)cccc6F)nnc53)C4(C)C)n2)ccn1 [Example 393, 2-(4-(6-((5R,8S)-3-(2,6-difluorophenyl)-9,9-dimethyl-5,6,7,8-tetrahydro-5,8-methanocinnolin-8-yl)pyrazin-2-yl)pyridin-2-yl)propan-2-ol]
18 | 9.1 | CC(C)(O)c1ncc(-c2cncc([C@@]34CC[C@@H](c5cc(-c6c(F)cccc6F)nnc53)C4(C)C)n2)cn1 [Example 394, 2-(5-(6-((5R,8S)-3-(2,6-difluorophenyl)-9,9-dimethyl-5,6,7,8-tetrahydro-5,8-methanocinnolin-8-yl)pyrazin-2-yl)pyrimidin-2-yl)propan-2-ol]
19 | 4.3 | CC1(C)[C@H]2CC[C@]1(c1cncc(-c3ccc(=O)[nH]c3)n1)c1nnc(-c3c(F)cccc3F)cc12 [Example 395, 5-(6-((5R,8S)-3-(2,6-difluorophenyl)-9,9-dimethyl-5,6,7,8-tetrahydro-5,8-methanocinnolin-8-yl)pyrazin-2-yl)pyridin-2(1H)-one]
20 | 4.8 | CC(C)(O)c1coc(-c2cncc([C@@]34CC[C@@H](c5cc(-c6ccccc6F)nnc53)C4(C)C)n2)n1 [Example 396, 2-(2-(6-((5R,8S)-3-(2-fluorophenyl)-9,9-dimethyl-5,6,7,8-tetrahydro-5,8-methanocinnolin-8-yl)pyrazin-2-yl)oxazol-4-yl)propan-2-ol]
21 | 10.4 | Cc1oc(-c2cncc([C@@]34CC[C@@H](c5cc(-c6c(F)cccc6F)nnc53)C4(C)C)n2)nc1C(C)(C)O [Example 397, 2-(2-(6-((5R,8S)-3-(2,6-difluorophenyl)-9,9-dimethyl-5,6,7,8-tetrahydro-5,8-methanocinnolin-8-yl)pyrazin-2-yl)-5-methyloxazol-4-yl)propan-2-ol]
22 | 12.5 | CC1(C)[C@H]2CC[C@]1(c1cncc(C3(O)COC3)n1)c1nnc(-c3c(F)cccc3F)cc12 [Example 398, 3-(6-((5R,8S)-3-(2,6-difluorophenyl)-9,9-dimethyl-5,6,7,8-tetrahydro-5,8-methanocinnolin-8-yl)pyrazin-2-yl)oxetan-3-ol]
23 | 6.4 | CC1(C)[C@H]2CC[C@]1(c1cncc(-c3cn[nH]n3)n1)c1nnc(-c3c(F)cccc3F)cc12 [Example 399]
24 | 8.7 | CC(C)(O)c1cnc(-c2cncc([C@@]34CC[C@@H](c5cc(-c6c(F)cccc6F)nnc53)C4(C)C)n2)cn1 [Example 400, 2-(6′-((5R,8S)-3-(2,6-difluorophenyl)-9,9-dimethyl-5,6,7,8-tetrahydro-5,8-methanocinnolin-8-yl)-[2,2′-bipyrazin]-5-yl)propan-2-ol]
25 | 14.7 | CC1(C)[C@H]2CC[C@]1(c1cncc(-c3cnc(=O)[nH]c3)n1)c1nnc(-c3c(F)cccc3F)cc12 [Example 401, 5-(6-((5R,8S)-3-(2,6-difluorophenyl)-9,9-dimethyl-5,6,7,8-tetrahydro-5,8-methanocinnolin-8-yl)pyrazin-2-yl)pyrimidin-2(1H)-one]
26 | 8.1 | CC1(C)[C@H]2CC[C@]1(c1cncc(-c3ccc(OCC(N)=O)nc3)n1)c1nnc(-c3c(F)cccc3F)cc12 [Example 402, 2-((5-(6-((5R,8S)-3-(2,6-difluorophenyl)-9,9-dimethyl-5,6,7,8-tetrahydro-5,8-methanocinnolin-8-yl)pyrazin-2-yl)pyridin-2-yl)oxy)acetamide]
27 | 6.8 | CC1(C)[C@H]2CC[C@]1(c1ccnc(-c3ccc(N)nc3)n1)c1nnc(-c3c(F)cccc3F)cc12 [Example 403]
28 | 9.2 | CC1(C)[C@H]2CC[C@]1(c1ccnc(-c3ccnc(C(N)=O)c3)n1)c1nnc(-c3c(F)cccc3F)cc12 [Example 404]
29 | 7.7 | CC1(C)[C@H]2CC[C@]1(c1cncc(-c3cnn(CC(N)=O)c3)n1)c1nnc(-c3c(F)cccc3F)cc12 [Example 405, 2-(4-(6-((5R,8S)-3-(2,6-difluorophenyl)-9,9-dimethyl-5,6,7,8-tetrahydro-5,8-methanocinnolin-8-yl)pyrazin-2-yl)-1H-pyrazol-1-yl)acetamide]
30 | 7.6 | CC(C)(O)Cn1cc(-c2cncc([C@@]34CC[C@@H](c5cc(-c6c(F)cccc6F)nnc53)C4(C)C)n2)cn1 [Example 406, 1-(4-(6-((5R,8S)-3-(2,6-difluorophenyl)-9,9-dimethyl-5,6,7,8-tetrahydro-5,8-methanocinnolin-8-yl)pyrazin-2-yl)-1H-pyrazol-1-yl)-2-methylpropan-2-ol]
31 | 7.6 | CC(C)(O)Cn1ccc(-c2cncc([C@@]34CC[C@@H](c5cc(-c6c(F)cccc6F)nnc53)C4(C)C)n2)n1 [Example 407, 1-(3-(6-((5R,8S)-3-(2,6-difluorophenyl)-9,9-dimethyl-5,6,7,8-tetrahydro-5,8-methanocinnolin-8-yl)pyrazin-2-yl)-1H-pyrazol-1-yl)-2-methylpropan-2-ol]

From patent US10487068B2, “Pyridazine derivatives as RORc modulators” (Genentech, Inc., priority 2015, dated 2019)
